Earlier results as cited in patent US20090068287A1, “Novel topical formulations of flucytosine and uses thereof” (priority 2007, published 2009).

Columns and labels:
C. glabrata [1] = conditions: boric acid 600 mg/day 2 to 3 weeks; flucytosine cream nightly for 14 days
C. tropicalis [2] = conditions: 70 C. tropicalis isolates
C. albicans = conditions: 104 patients with vulvovaginal candidiasis
C. parapsilosis = conditions: 65 C. parapsilosis isolates
C. glabrata [3] = conditions: 68 C. glabrata isolates
Candida albicans = conditions: 342 Candida albicans isolates
[4] = human, in vivo
C. tropicalis [5] = conditions: 28 patients on miconazole nitrate, 13 on clotrimazole, nightly for seven nights; 3 secondarily on ketoconazole 200 mg for 14 days

With `C[C@@H]1[C@H](O)[C@@H](C)/C=C/C=C/C=C/C=C/C=C/C=C/C=C/[C@H](O[C@@H]2O[C@H](C)[C@@H](O)[C@H](N)[C@@H]2O)C[C@@H]2O[C@](O)(C[C@@H](O)C[C@@H](O)[C@H](O)CC[C@@H](O)C[C@@H](O)CC(=O)O[C@H]1C)C[C@H](O)[C@H]2C(=O)O` [amphotericin B] as the compound, how does the “cross-resistance of fluconazole/itraconazole resistant C. albicans isolates” value (clinical yeast isolates) read?
The value was “no cross-resistance”.

Which results are given for `OB(O)O` [boric acid]?
clinical and mycological success / successful outcome, number of women (C. glabrata [1]): 47 of 73; clinical and mycological success / successful outcome, percent of women (C. glabrata [1]): 64%

With `OC(Cn1cncn1)(Cn1cncn1)c1ccc(F)cc1F` [fluconazole] as the compound, how does the isolates resistant (C. tropicalis [2]) read?
The isolates resistant was 27.1%.

And the “resistant C. albicans isolated, share of the cases” value (C. albicans)?
The value was 13.46%.

What about the isolates resistant (C. parapsilosis) of the same compound?
The isolates resistant was 4.6%.

And the yeast strains resistant (clinical yeast isolates; 227 clinical yeast isolates)?
The yeast strains resistant was “Almost thirteen percent”.

What about the isolates resistant (C. glabrata [3]) of the same compound?
The isolates resistant was 10.3%.

And the isolates showing resistance (Candida albicans)?
The isolates showing resistance was 7.6%.

With `Nc1nc(=O)[nH]cc1F` [flucytosine, 4-amino-5-fluoropyrimidin-2(1H)-one] as the compound, how does the “plasma level that led to bone marrow depression and hepatotoxicity” value [4] read?
The value was “greater than 100 mg/L”.

With `CC(=O)N1CCN(c2ccc(OCC3COC(Cn4ccnc4)(c4ccc(Cl)cc4Cl)O3)cc2)CC1` (stereo not drawn) [ketoconazole] as the compound, how does the isolates resistant (C. tropicalis [2]) read?
The isolates resistant was 2.9%.

And the patients with recurrences (C. tropicalis [5])?
The patients with recurrences was “all three”.

And the “cross-resistance of fluconazole/itraconazole resistant C. albicans isolates” value (clinical yeast isolates)?
The value was “decreased susceptibilities”.

Which “cross-resistance of fluconazole/itraconazole resistant C. albicans isolates” value (clinical yeast isolates) does the source give for `Clc1ccc(COC(Cn2ccnc2)c2ccc(Cl)cc2Cl)c(Cl)c1` (stereo not drawn) [miconazole] here?
The value was “decreased susceptibilities”.

Which “cross-resistance of fluconazole/itraconazole resistant C. albicans isolates” value (clinical yeast isolates) does the source give for `C[C@@H]1[C@H](O)[C@@H](C)/C=C/C=C/CC/C=C/C=C/C=C/C=C/C(O[C@H]2O[C@H](C)[C@@H](O)[C@H](N)[C@@H]2O)CC2O[C@](O)(CC(O)C(O)CCC(O)CC(O)CC(O)CC(=O)O[C@H]1C)CC(O)C2C(=O)O` (stereo partly drawn) [nystatin] here?
The value was “no cross-resistance”.
